Measurements taken from patent US5182265A, “Pharmacologically active peptide derivatives and pharmaceutical preparations containing them” (SPA Societa' Prodotti Antibiotici S.p.A., priority 1989, dated 1993).
Counter-ions that a name gives are not always drawn. Where a SMILES comes first, the peptide text is derived from it.

Experiment: Water solubility of the salts (qualitative remark in the preparation)
Assay type: physicochemical
Conditions: qualitative description of the isolated salt
Protocol: H-Thr-Asp-D-Tyr-OH is dissolved in 5 volumes of water, and the solution is added with an equivalent amount of 1N HCl.
The solution is concentrated to small volume under vacuum and added with acetone.

## C[C@@H](O)[C@H](N)C(=O)N[C@@H](CC(=O)O)C(=O)N[C@H](Cc1ccc(O)cc1)C(=O)O [H-Thr-Asp-D-Tyr-OH hydrochloride] (HELM PEPTIDE1{T.D.[dY]}$$$$V2.0)
  water solubility of the isolated powder: very water soluble

## C[C@@H](O)[C@H](N)C(=O)N[C@@H](CC(=O)O)C(=O)N[C@@H](Cc1ccc(O)cc1)C(=O)O [H-Thr-Asp-Tyr-OH lysine salt] (H-Thr-Asp-Tyr-OH)
  water solubility of the isolated powder: freely water soluble
